Assay results taken from patent US5446037A, “2-[(substituted) methylene]cephalosporin sulfones as antiinflammatory, antidegenerative and antithrombin agents” (Synphar Laboratories, Inc., priority 1993, dated 1995).

Tests used:
[1] = molecular target: T1, human leukocyte elastase (HLE) (Homo sapiens, UniProt P08246); test: Human leukocyte elastase (HLE) inhibition (MeO-Suc-Ala-Ala-Pro-Val-pNA hydrolysis, absorbance at 410 nm); assay type: biochemical; conditions: Table I; pH 7.6, 30° C., 10 min pre-incubation, 10% (v/v) DMSO
T1 construct: purchased Elastin products, Missouri, U.S.A
T1 sequence (P08246 30-267): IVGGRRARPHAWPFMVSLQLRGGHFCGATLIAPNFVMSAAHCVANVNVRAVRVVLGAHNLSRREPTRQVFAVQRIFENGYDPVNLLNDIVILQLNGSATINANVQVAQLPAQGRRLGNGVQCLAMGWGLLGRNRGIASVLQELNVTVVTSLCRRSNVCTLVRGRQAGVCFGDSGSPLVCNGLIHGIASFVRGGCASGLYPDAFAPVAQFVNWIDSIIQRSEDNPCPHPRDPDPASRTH
Protocol: Determining HLE Inhibitory Activity
Human leukocyte elastase (HLE) obtained from Elastin products, Missouri, U.S.A., is dissolved in 0.05M sodium acetate containing 0.4M sodium chloride (pH 5.3) and stored at -20° C. Small aliquots of these stock solutions (1 μm) are used in the HLE assays.
Buffer: 0.01M Na, K-Phosphate, 0.5M NaCl (pH 7.6)
Substrate: 0,014M Meo-Suc-Ala-Ala-Pro-Val-pNA in DMSO
Inhibitor: various concentrations in DMSO
Enzyme: stock solution noted above
The stock solution of enzyme was equilibrated to 30° C. A cuvette containing buffer and inhibitor was equilibrated to 30° C. 10 μL of enzyme solution giving a rate of 0.04-0.05 AU/min in the absence of inhibitor, was mixed into the buffer/inhibitor solution and this mixture was incubated at 30° C. for 10 minutes. After this pre-incubation substrate was added to give a final concentration of […] and a final DMSO concentration of 10% (v/v). The rate of product formation, proportional to the change in absorbance at 410 nm, was monitored for two minutes following the addition of substrate. For a typical IC50 plot the rate was determined at 5-8 inhibitor concentrations (in duplicate) spanning 10-80% inhibition (in most cases). In most cases the data could be fit by linear least-squares and the IC50 determined from this plot.

human plasma thrombin = molecular target: T2, human plasma thrombin (Homo sapiens, UniProt P00734); test: Inhibition of thrombin (Chromozym TH spectrophotometric end-point assay, 410 nm); assay type: biochemical; conditions: Table II, pH 8.6, room temperature, 10 min pre-incubation, 30 min incubation
T2 construct: purchased Boehringer, Montreal, Canada
Protocol: Determining the Inhibition of Thrombin
Lyophilized human plasma thrombin obtained from Boehringer, Montreal, Canada was dissolved in 0.5M Na, K-phosphate buffer (pH 7.0) and stored at +4° C.
Substrate: 0.5 mM Chromozym TH (tosyl-glycyl-prolylarginine-4-nitroanilide acetate) in DMSO
Inhibitor: 10 μM dissolved in DMSO
Temperature: room temperature (approx.).
A single inhibitor concentration (10 μM) was tested using a spectrophotometric end-point assay (1 ml final volume). Enzyme activity was monitored by formation of a product that absorbed light at 410 nm and an enzyme concentration which gave a rate of 0.01-0.02 AU/min was used. Enzyme and inhibitor were pre-incubated for 10 min in the final amounts of buffer and DMSO. The reaction was then started by the addition of substrate. After 30 min incubation the reaction was terminated by the addition of 10% SDS (0.1 ml) and the absorbance measured. Enzyme blanks were run concurrently to account for any background absorbance by the compound. Inhibition was calculated by the net A410 in the presence of inhibitor compared to that in the absence of inhibitor (DMSO controls).

SMILES | IC50 [1] [nM] | inhibition at 10 µM (human plasma thrombin) [%]
CO[C@H]1C(=O)N2C(C(=O)OC(C)(C)C)=C(COC(C)=O)/C(=C/c3cn(C)nn3)S(=O)(=O)[C@H]12 | 7.8 | 
CO[C@H]1C(=O)N2C(C(=O)OC(C)(C)C)=C(COC(C)=O)/C(=C\c3cn(C)nn3)S(=O)(=O)[C@H]12 | 9.2 | 
CO[C@H]1C(=O)N2C(C(=O)OC(C)(C)C)=C(COC(C)=O)/C(=C\c3cccnc3)S(=O)(=O)[C@H]12 | 7.2 | 
CO[C@H]1C(=O)N2C(C(=O)OC(C)(C)C)=C(COC(C)=O)/C(=C/c3cccnc3)S(=O)(=O)[C@H]12 | 7.2 | 
CO[C@H]1C(=O)N2C(C(=O)OC(C)(C)C)=C(C)/C(=C/c3cccnc3)S(=O)(=O)[C@H]12 | 35 | 
CO[C@H]1C(=O)N2C(C(=O)OC(C)(C)C)=C(COC(C)=O)/C(=C/c3ccsc3)S(=O)(=O)[C@H]12 | 6.4 | 
CO[C@H]1C(=O)N2C(C(=O)OC(C)(C)C)=C(C)/C(=C\c3cn(C)nn3)S(=O)(=O)[C@H]12 | 100 | 
CO[C@H]1C(=O)N2C(C(=O)OC(C)(C)C)=C(C)/C(=C/c3cn(C)nn3)S(=O)(=O)[C@H]12 | 75 | 
CO[C@H]1C(=O)N2C(C(=O)OC(C)(C)C)=C(COC(C)=O)/C(=C/c3ccccc3F)S(=O)(=O)[C@H]12 [drawing 21] | 5.8 | 
CO[C@H]1C(=O)N2C(C(=O)OC(C)(C)C)=C(COC(C)=O)/C(=C\c3ccccc3F)S(=O)(=O)[C@H]12 [drawing 22] | 6 | 
CO[C@H]1C(=O)N2C(C(=O)OC(C)(C)C)=C(COC(C)=O)/C(=C\c3ccco3)S(=O)(=O)[C@H]12 [drawing 25] | 22 | 
CO[C@H]1C(=O)N2C(C(=O)OC(C)(C)C)=C(COC(C)=O)/C(=C\c3ccsc3)S(=O)(=O)[C@H]12 [drawing 29] | 6.4 | 
CO[C@H]1C(=O)N2C(C(=O)OC(C)(C)C)=C(COC(C)=O)/C(=C\c3ccco3)S(=O)(=O)[C@H]12 [drawing 34] |  | 94.7
CO[C@H]1C(=O)N2C(C(=O)OC(C)(C)C)=C(COC(C)=O)/C(=C\c3ccsc3)S(=O)(=O)[C@H]12 [drawing 35] |  | 98.9
CO[C@H]1C(=O)N2C(C(=O)OC(C)(C)C)=C(COC(C)=O)/C(=C/c3ccccc3F)S(=O)(=O)[C@H]12 [drawing 36] |  | 96.8
CO[C@H]1C(=O)N2C(C(=O)OC(C)(C)C)=C(COC(C)=O)/C(=C\c3ccccc3F)S(=O)(=O)[C@H]12 [drawing 37] |  | 98.5
